The target in the test is human recombinant NLRP3 protein. Description: Binding of NSIs to recombinant NLRP3 protein by microscale thermophoresis (Monolith NT.Automated). Conditions: MST; His-NLRP3 labeled with RED-tris-NTA dye, 40 min incubation in PBS-T; duplicate reads. The protocol: Monolith NT. Automated instrument was used to measure the Kd value. A range of concentrations of NSIs were incubated and His-NLRP3 pre-labeled with RED-tris-NTA dye kit (SKU: MO-L018) for 40 min in PBS-T assay buffer (1×PBS with 0.05% Tween® 20). The samples were loaded into NanoTemper® glass capillaries and series of ligand-induced changes in thermophoresis curves were gained using an Excitation power of 80% and a MST power of high. Kd values were calculated using the mass action equation with NanoTemper software from duplicate reads of an experiment.
Table 1 provides exemplary binding affinities of NSIs to human recombinant NLRP3 protein.
(Microscale thermophoresis detects binding through changes in fluorescence in a small temperature gradient.)

`COc1ccc(Cl)cc1Cn1cc(-c2ccc(C(=O)N3CCC3)cc2)nn1` [YM-III-11]: the Kd (usually the equilibrium constant for the complex coming apart) was 3000 nM.

In the case of `COc1ccc(Cl)cc1Cn1cc(C(=O)N2CC(F)(F)C2)nn1` [YM-III-12], the Kd turned out to be 980 nM.

(Values after patent publication US20250243172A1, “NLRP3 INFLAMMASOME INHIBITORS AND COMPOSITIONS AND USES THEREOF” (VIRGINIA COMMONWEALTH UNIVERSITY, priority 2022, published 2025).)
